According to ChEMBL document CHEMBL3885861, “Open TG-GATES”:

Species: Rattus norvegicus
Experiment: Open TG-GATES - Regimen: Single
Format: toxicity, organism-based, Sprague-Dawley
Parameters: regimen Single, gender Male, age 6 weeks
Settings: in vivo, po, 0 mg/kg, route gavage, dose level Control; for APTT / Bas / Eos / Fbg / Hb / Ht / Lym / MCHC / MCV / Mono / Neu / PT / Plat / RBC / Ret / WBC: tissue Blood; for KIDNEY_L / KIDNEY_R / KIDNEY_TOTAL: tissue Kidney; for LIVER: tissue Liver; for ALP / ALT / AST / BUN / CRE / Ca / Cl / DBIL / GLC / IP / K / LDH / Na / PL / RALB / TBIL / TC / TG / TP / gamma-GTP: tissue Plasma

SMILES: CS(=O)(=O)Nc1ccc([N+](=O)[O-])cc1Oc1ccccc1 [NIMESULIDE]
- TERMINAL_BW (3 h): 201.3 g
- APTT (3 h): 17.1 s
- Bas (3 h): 0%
- Eos (3 h): 1.4%
- Fbg (3 h): 212 mg/dL
- Hb (3 h): 14.1 g/dL
- Ht (3 h): 41.1%
- Lym (3 h): 77%
- MCHC (3 h): 34.3%
- MCV (3 h): 64.2 fL
- Mono (3 h): 6.2%
- Neu (3 h): 15.6%
- PT (3 h): 12.4 s
- Plat (3 h): 118.2 x10_4/uL
- RBC (3 h): 640.8 x10_4/ul
- Ret (3 h): 10.6%
- WBC (3 h): 89.8 x10_2/uL
- KIDNEY_L (3 h): 0.9 g
- KIDNEY_R (3 h): 0.9 g
- KIDNEY_TOTAL (3 h): 1.9 g
- LIVER (3 h): 9.7 g
- ALP (3 h): 917.4 IU/L
- ALT (3 h): 37.4 IU/L
- AST (3 h): 63.4 IU/L
- BUN (3 h): 12.4 mg/dL
- CRE (3 h): 0.5 mg/dL
- Ca (3 h): 11 mg/dL
- Cl (3 h): 105.4 meq/L
- DBIL (3 h): 0.048 mg/dL
- GLC (3 h): 197.2 mg/dL
- IP (3 h): 9.6 mg/dL
- K (3 h): 4.8 meq/L
- LDH (3 h): 65.8 IU/L
- Na (3 h): 141.8 meq/L
- PL (3 h): 133.6 mg/dL
- RALB (3 h): 3.7 g/dL
- TBIL (3 h): 0.3 mg/dL
- TC (3 h): 75 mg/dL
- TG (3 h): 57.4 mg/dL
- TP (3 h): 5.3 g/dL
- gamma-GTP (3 h): 1.6 IU/L
- TERMINAL_BW (6 h): 196.6 g
- APTT (6 h): 17.7 s
- Bas (6 h): 0%
- Eos (6 h): 1%
- Fbg (6 h): 209.6 mg/dL
- Hb (6 h): 13.6 g/dL
- Ht (6 h): 40.3%
- Lym (6 h): 72.6%
- MCHC (6 h): 33.7%
- MCV (6 h): 65.3 fL
- Mono (6 h): 7.8%
- Neu (6 h): 19%
- PT (6 h): 12.5 s
- Plat (6 h): 116.9 x10_4/uL
- RBC (6 h): 617.4 x10_4/ul
- Ret (6 h): 11.4%
- WBC (6 h): 109.3 x10_2/uL
- KIDNEY_L (6 h): 0.8 g
- KIDNEY_R (6 h): 0.9 g
- KIDNEY_TOTAL (6 h): 1.7 g
- LIVER (6 h): 8.5 g
- ALP (6 h): 832.8 IU/L
- ALT (6 h): 35.8 IU/L
- AST (6 h): 63.2 IU/L
- BUN (6 h): 12.4 mg/dL
- CRE (6 h): 0.6 mg/dL
- Ca (6 h): 10.7 mg/dL
- Cl (6 h): 105.6 meq/L
- DBIL (6 h): 0.062 mg/dL
- GLC (6 h): 188 mg/dL
- IP (6 h): 10.2 mg/dL
- K (6 h): 4.9 meq/L
- LDH (6 h): 62.6 IU/L
- Na (6 h): 140.4 meq/L
- PL (6 h): 139.6 mg/dL
- RALB (6 h): 3.7 g/dL
- TBIL (6 h): 0.4 mg/dL
- TC (6 h): 83.2 mg/dL
- TG (6 h): 52.8 mg/dL
- TP (6 h): 5.2 g/dL
- gamma-GTP (6 h): 2 IU/L
- TERMINAL_BW (9 h): 196.3 g
- APTT (9 h): 17.5 s
- Bas (9 h): 0%
- Eos (9 h): 1%
- Fbg (9 h): 204.8 mg/dL
- Hb (9 h): 13.4 g/dL
- Ht (9 h): 39.5%
- Lym (9 h): 71.6%
- MCHC (9 h): 33.9%
- MCV (9 h): 64.3 fL
- Mono (9 h): 9%
- Neu (9 h): 18.6%
- PT (9 h): 12.4 s
- Plat (9 h): 110.8 x10_4/uL
- RBC (9 h): 614 x10_4/ul
- Ret (9 h): 10.8%
- WBC (9 h): 94 x10_2/uL
- KIDNEY_L (9 h): 0.9 g
- KIDNEY_R (9 h): 1 g
- KIDNEY_TOTAL (9 h): 1.9 g
- LIVER (9 h): 8.3 g
- ALP (9 h): 898.6 IU/L
- ALT (9 h): 31.4 IU/L
- AST (9 h): 59.8 IU/L
- BUN (9 h): 12.4 mg/dL
- CRE (9 h): 0.5 mg/dL
- Ca (9 h): 10.6 mg/dL
- Cl (9 h): 106 meq/L
- DBIL (9 h): 0.028 mg/dL
- GLC (9 h): 193.6 mg/dL
- IP (9 h): 10.3 mg/dL
- K (9 h): 5 meq/L
- LDH (9 h): 79.2 IU/L
- Na (9 h): 138.4 meq/L
- PL (9 h): 128.4 mg/dL
- RALB (9 h): 4 g/dL
- TBIL (9 h): 0.3 mg/dL
- TC (9 h): 70.8 mg/dL
- TG (9 h): 47.6 mg/dL
- TP (9 h): 5.3 g/dL
- gamma-GTP (9 h): 1.2 IU/L
- TERMINAL_BW (24 h): 217.2 g
- APTT (24 h): 16.3 s
- Bas (24 h): 0%
- Eos (24 h): 1%
- Fbg (24 h): 201 mg/dL
- Hb (24 h): 13.1 g/dL
- Ht (24 h): 38.9%
- Lym (24 h): 71.6%
- MCHC (24 h): 33.7%
- MCV (24 h): 66 fL
- Mono (24 h): 10.8%
- Neu (24 h): 16.6%
- PT (24 h): 11.7 s
- Plat (24 h): 118.1 x10_4/uL
- RBC (24 h): 590.2 x10_4/ul
- Ret (24 h): 10.9%
- WBC (24 h): 107.9 x10_2/uL
- KIDNEY_L (24 h): 1 g
- KIDNEY_R (24 h): 1 g
- KIDNEY_TOTAL (24 h): 1.9 g
- LIVER (24 h): 10.4 g
- ALP (24 h): 1023 IU/L
- ALT (24 h): 35 IU/L
- AST (24 h): 62.8 IU/L
- BUN (24 h): 18.4 mg/dL
- CRE (24 h): 0.5 mg/dL
- Ca (24 h): 10.7 mg/dL
- Cl (24 h): 104.4 meq/L
- DBIL (24 h): 0.012 mg/dL
- GLC (24 h): 190.4 mg/dL
- IP (24 h): 7.8 mg/dL
- K (24 h): 4.9 meq/L
- LDH (24 h): 81.4 IU/L
- Na (24 h): 139.6 meq/L
- PL (24 h): 150.8 mg/dL
- RALB (24 h): 4.1 g/dL
- TBIL (24 h): 0.3 mg/dL
- TC (24 h): 79.8 mg/dL
- TG (24 h): 86.8 mg/dL
- TP (24 h): 5.5 g/dL
- gamma-GTP (24 h): 1.8 IU/L
